Results reported in patent publication US20160113904A1, “SKIN CARE PRODUCTS COMPRISING SUBSTITUTED HYDROXYPROLINE WITH UNSATURATED FATTY ACIDS DERIVATIVES” (MEDWELL LABORATORIES LTD., priority 2013, published 2016).

Assays:
Format in all cases: in vivo, human
[1] = system: volunteers with Atopic dermatitis; experiment: Atopic dermatitis trial: erythema level by Mexameter; details: for Change in erythema level / Erythema level: treated area; for Erythema level: Mexameter
Experimental: (§1) Ten volunteers aged 2-30 years participated in the trial. Four females and six males.
(§2) Volunteers were instructed to apply the product only on one side of the body, on the worst affected area, while the other side was defined as the control area and was not treated. The tested material, a body lotion product, was applied 1-3 times a day for a period of 4 weeks.
Erythema level was evaluated by Mexameter, Courage & Khazaka, CK. The probe of the Mexameter was placed on the skin at a constant pressure and measurements of skin hydration were taken. Skin erythema level was recorded at baseline, after 1 week and after 2 weeks of treatment.
(§3) A statistical comparison between T0 and the other two time-points (T1 and T2) and between the treated and the Control areas were made according to the Wilcoxon signed-ranks test, while p<0.05 indicated a significant difference

[2] = system: healthy female volunteers, facial skin; experiment: Anti wrinkle test: TEWL by Tewameter; details: face, treated area
Experimental: Ten healthy female volunteers were included and completed the study.
Moisture level of the skin (corneometry) and TEWL (Trans Epidermal Water Loss) were measured at each time point.
A cosmetic anti wrinkle product MW-001 was applied on half of the face for four weeks by each volunteer while the other half served as a control, without any product application during the whole test period.
TEWL (the ability not to harm the skin barrier) was measured with Tewameter TM 300, Courage & Khazaka, CK. TEWL was recorded at T0, T1 and T2. The results of TEWL in each measurement were recorded after stabilization of the curve of the results in real time. Room temperature and humidity were constant.

[3] = system: volunteers with Atopic dermatitis; experiment: Atopic dermatitis trial: study director's evaluation of skin condition
Experimental: (§4) In Examples 1-3 an emulsion type O/W Creams of MWL-001 (2.5% and 5% w/w) was prepared using Emulgade® SE emulsifiers (glyceryl stearate), Ceteareth-20, cetearyl alcohol, cetyl palmitate, cetearyl alcohol-Lanette®, isopropyl myristate, caprilic/capric acid triglycerides (Myritol®318), strearic acid, a Trietanolamine and purified water, according to Ph Eur 6.0.
as §1, §2
Each volunteer was examined at baseline (T0), after one week (T1) and after 2 weeks of using the product (T2). The investigator rated the condition of the skin according to the parameters of the size of the affected area, dryness, scale, redness, edema, lichenification and pruritus. Both the treated and the Control areas were documented with color photographs at T0, T1 and T2.
The following parameters were evaluated: • a. Lesion area • b. Dryness • c. Scales • d. Redness • e. Edema • f. Lichenificalion
The parameters mentioned above were evaluated on a scale of 0 to 5 by the study director. • 0=None • 1=Slight • 2=Moderate • 3=Severe • 4=Extreme • 5=Very Extreme
as §3
All parameters were assessed in a scale of 0-5 where 0=none and 5=very extreme. The percentage of change was calculated at T1 and T2.

[4] = system: volunteers with psoriasis; experiment: Psoriasis trial: study director's evaluation of lesions; details: for Redness level / Scale level / Thickness of the Skin / Infected area size: treated area
Experimental: as §4
Fifteen volunteers aged 29-73 with psoriasis.
The volunteers were instructed to use the cream at least once a day, for 4 weeks.
Volunteers were instructed to apply the product only on one side of the body, on the worst affected area at least once a day, for 4 weeks, while the other side was defined as the control area and was not treated.
Each volunteer was examined at baseline (T0), after two weeks (T1) and after 4 weeks of using the product (T2). The study Director rated the state of the skin according to the parameters of scales severity, thickness of the plaque, redness and the size of the lesions. Erythema level was documented at each time point.
The following parameters were evaluated:
a) Size of lesion b) Thickness of lesion
The parameters mentioned above were evaluated on a scale of 0 to 5 by the study director.
A statistical comparison between T0 and the other two time-points (T1 and T2) and between the treated and the Control areas were made by paired sample t-test, while p<0.05 indicated a significant difference
The results of 15 volunteers at each time point are presented in the Tables below and in the relevant Figures. All parameters were assessed in a scale of 0-5 where 0=none and 5=very extreme

[5] = system: volunteers with Atopic dermatitis; experiment: Atopic dermatitis trial: hydration level by Corneometer; details: for Change in hydration level / Hydration level: treated area; for Hydration level: Corneometer
Experimental: as §1, §2
Hydration level was evaluated by Comeometer CM 825, Courage & Khazaka, CK. The probe of the Corneometer was placed on the skin at a constant pressure and measurements of skin hydration were taken. Skin hydration was recorded at baseline, after 1 week and after 2 weeks of treatment. Room temperature and humidity were kept constant.
as §3

[6] = after 2 weeks of treatment, both sides
[7] = treated area, T0 baseline, scale 0-5
[8] = treated area, T1 after one week, scale 0-5
[9] = treated area, T2 after two weeks, scale 0-5
[10] = treated area, after 1 week of treatment
[11] = treatment area, after 4 weeks, p<0.05

CCC=CCC=CCC=CCC=CCC=CCC=CCCC(=O)N1CC(O)CC1C(=O)O (stereo in doubt) [MW-001]
Change in erythema level ([1]; Baseline): 100%
Erythema level ([1]; T0 baseline): 620.5
Erythema level ([1]; T1 after one week): 562.7
Erythema level ([1]; T2 after two weeks): 600.2
Change in erythema level ([1]; Week 1, relative to baseline): 91%
Change in erythema level ([1]; Week 2, relative to baseline): 97%
Erythema level, statistical analysis of change ([1]; treated side, after 1 week of treatment): decreased significantly
Erythema level, statistical analysis versus baseline ([1]; treated side, after the increase following week 1): not significantly different
Average TEWL level ([2]; T0 baseline): 7.8 g/hm^2
Average TEWL level ([2]; T1 after 2 weeks of use): 9.4 g/hm^2
Average TEWL level ([2]; T2 after 4 weeks of use): 7.6 g/hm^2
Scale level, statistical analysis of change ([3]; after 1 and 2 weeks of treatment, only at the treated area): decreased significantly
Dryness level, statistical analysis of change [3, 6]: decreased significantly
Redness level, statistical analysis of change [3, 6]: decreased significantly
Lichenification level, statistical analysis of change ([3]; after 2 weeks of treatment, only at the treated area): decreased significantly
Overall efficacy conclusion ([3]; atopic dermatitis): very efficient in the treatment of atopic dermatitis
Dryness level [3, 7]: 4.1
Lichenification level [3, 7]: 2.8
Redness level [3, 7]: 3.9
Scale level [3, 7]: 2.6
Infected area size ([3]; treated area, T0 baseline, scale 0-5, 10 volunteers): 4.3
Dryness level [3, 8]: 1.8
Infected area size [3, 8]: 3.2
Lichenification level [3, 8]: 2.0
Redness level [3, 8]: 2.4
Scale level [3, 8]: 1.3
Dryness level [3, 9]: 1.1
Infected area size [3, 9]: 2.2
Lichenification level [3, 9]: 1.3
Redness level [3, 9]: 2.3
Scale level [3, 9]: 0.9
Dryness level, statistical analysis of change [3, 10]: decreased significantly
Redness level, statistical analysis of change [3, 10]: decreased significantly
Infected area size, statistical analysis of change ([3]; treated area, after 2 weeks of treatment, p<0.05, Wilcoxon): diminished significantly
Overall efficacy conclusion [4]: efficient in the treatment of psoriasis
Lesion area size, statistical analysis of decrease ([4]; after 4 weeks of application): insignificant
Scale parameter, treatment side versus control side ([4]; after both 2 weeks (T1) and 4 weeks (T2)): Significant differences
Redness parameter, statistical analysis of change ([4]; any of the sides, whole study period, p>0.05): No significant change
Redness level ([4]; T0 baseline, scale 0-5): 3.3
Scale level ([4]; T0 baseline, scale 0-5): 4.5
Thickness of the Skin ([4]; T0 baseline, scale 0-5): 3.0
Infected area size ([4]; T0 baseline, scale 0-5, 15 volunteers): 4.1
Infected area size ([4]; T1 after two weeks, scale 0-5): 3.8
Redness level ([4]; T1 after two weeks, scale 0-5): 3.5
Scale level ([4]; T1 after two weeks, scale 0-5): 4.1
Thickness of the Skin ([4]; T1 after two weeks, scale 0-5): 2.6
Infected area size ([4]; T2 after four weeks, scale 0-5): 3.9
Redness level ([4]; T2 after four weeks, scale 0-5): 3.2
Scale level ([4]; T2 after four weeks, scale 0-5): 3.8
Thickness of the Skin ([4]; T2 after four weeks, scale 0-5): 2.4
Lesion area size, statistical analysis of change ([4]; treatment area, after 2 weeks of application): significant decrease
Scales parameter, statistical analysis of change [4, 11]: significant improvement
Thickness parameter, statistical analysis of change [4, 11]: significant improvement
Hydration level, statistical analysis of change ([5]; any of the sides): no significant change
Change in hydration level ([5]; Baseline): 100%
Hydration level ([5]; T0 baseline): 21.1
Hydration level ([5]; T1 after one week): 30.7
Hydration level ([5]; T2 after two weeks): 27.8
Change in hydration level ([5]; Week 1, relative to baseline): 146%
Change in hydration level ([5]; Week 2, relative to baseline): 132%
